The structures appear in SMILES notation.

For assay [1], the target named is T1, KLK2 (Homo sapiens, UniProt P20151).
T1 construct: purchased R&D Systems
In words: Inhibition of KLK2 after incubation with 50 µM probe (Figure S8). It counts as biochemical. As to conditions: 30 minutes. Here is the method: Table S1: Antibodies used throughout this project
Protein Supplier Cat. No. Host /clonal Immunogen
KLK2 Abcam Ab124899 Rabbit Mono Synthetic peptide within amino […]
KLK3 SCBT sc-7316 Mouse Mono Full length KLK3 of human origin
KLK14 Abcam Ab128957 Rabbit Mono Synthetic peptide within the C- […]
Transferrin Abcam Ab66952 Rabbit Poly Full length Transferrin of human […]
HSP90 SCBT sc-69703 Mouse Mono Full length HSP90 of human
In gel-fluorescence: LNCaP conditioned media (50 µg) was treated with a fluorescent activity-based probe for 1 h. After 1 h, proteins were precipitated using the aforementioned procedure and resuspended in a 3:1 ratio of PBS and sample loading buffer to a concentration of 1 mg/mL. After boiling for 5 min, 10 µL of sample was loaded on to a hand cast 12 % Bis-Tris gel and proteins were separated by SDS-PAGE as described above. Gels were then scanned for fluorescence at the appropriate wavelength.
Immunoprecipitation: LNCaP conditioned media (100 µg) was treated with the appropriate ABP for 1h. Proteins were precipitated using the CHCl3/MeOH procedure outlined above and resuspended in RIPA buffer (20 mM Tris, 150 mM NaCl, 1 mM EDTA, 1mM EGTA, 1 % NP-40, 1 % sodium deoxycholate, 2.5 mM sodium pyrophosphate, 1 mM glycerophosphate, 1 mM Na3VO4 pH 7.5) to a concentration of 1 mg/mL. […]

Assay [2] deals with T1, KLK2. In words: Determination of kinact/KI, fluorogenic substrate kinetic assay. As to conditions: for kinact/KI: mean ± SEM (N = 3). It counts as biochemical. An excerpt: 1.1 Chemicals and Reagents
All chemicals and reagents were purchased from commercial suppliers and used without further purification. Rink Amide resin (100-200 mesh) and 2-Chlorotrityl chloride resin (100-200 mesh, 1% DVB) were obtained from Merck. Natural Fmoc-amino acids were obtained from AGTC Bioproducts Ltd. Unnatural Fmoc-amino acids were obtained from Fluorochem, Alfa Aesar, VWR, Merck, Iris Biotech, Bachem or Sigma Aldrich. Culture media, fetal bovine serum, trypsin, antibiotics and chemicals required for differentiation of osteoprogenitor cells were obtained from Sigma Aldrich, Gibco or Invitrogen. Amicon 3 KDa Centrifugal filter units were obtained from Merck. Recombinant human KLK2 and KLK14 were obtained from R&D Systems and activated using the supplier’s protocol. All remaining chemical reagents were obtained from VWR, Sigma Aldrich or Merck. […]
Fluorescent plate-based enzymatic assays were carried out using an Envision 2104 Multilabel Plate Reader (PerkinElmer) operating in kinetic mode for a minimum of 20 min with excitation/emission […]
Specificity […]
was calculated by normalizing RFUs-1 to the highest value, which was set at 100 %.
Calculations were made in GraphPad Prism 5.
Determination of kcat/KM: The KLK2 substrate and KLK14 substrate were serially diluted in the appropriate KLK assay buffer and 25 μL was added to the wells of a 96-well plate. Next, 25 μL of KLK2 (1.5 nM) or KLK14 (75 pM) was added to each well containing the substrate and the enzyme-substrate reaction was monitored for at least 10 min. The linear portion of each progress curve was used to calculate relative fluorescence units per second (RFUs-1).
KM, kcat, and kcat/KM parameters were determined by nonlinear regression in GraphPad Prism 5 (GraphPad Software). Each experiment was repeated three times and the results are presented as an average ± SEM.
Determination of kinact/KI: Under pseudo-first order conditions, a fixed amount of KLK2 (1.5 nM) or KLK14 (37 pM) was incubated with peptidyl-DPP analogue at different concentrations in the presence of 5 µM of substrate. The pseudo first-order rate constant, kobs, was calculated for each probe concentration using non-linear regression analysis in GraphPad Prism 5. The obtained values were plotted against probe concentration to afford the apparent second order rate constant kinact(app)/KI. The absolute value of the second order rate constant was then obtained by adjusting for the substrate competition factor (1 + [S]/Km), where S is the concentration of substrate in the assay and KM is the Michaelis Menten constant for that substrate/enzyme reaction.
2.5 Cell Migration Assays
Cell migration: The assay was performed as per the manufacturer’s protocol (https://www.corning.com/catalog/cls/documents/protocols/an_Chemotaxis_protocol.pdf).
Briefly, LNCaP-WT, LNCaP-mK14 and LNCaP-K14 cells were grown to 80% confluency in RPMI media supplemented with 5 % FBS. The media was then aspirated, the cells were washed with 2 mL PBS (3*) and incubated with serum-free RPMI (without phenol red) supplemented with 10 nM DHT ± 100 ng/mL Dox for 24 h. Cells were trypsinized, washed twice with serum-free RPMI and resuspended in serum-free RPMI. 100,000 cells in 100 µL of serum-free RPMI was then added to the transwell inserts placed in a 24-well plate (Corning […]
Figure S15: KLK2 and KLK14 substrates. (A) Structures (B) Optimal assay conditions for […]
S19) inhibitors (C) Michaelis-Menten (K M) and rate (kcat) constants for KLK substrates

T1 sequence (P20151 25-261): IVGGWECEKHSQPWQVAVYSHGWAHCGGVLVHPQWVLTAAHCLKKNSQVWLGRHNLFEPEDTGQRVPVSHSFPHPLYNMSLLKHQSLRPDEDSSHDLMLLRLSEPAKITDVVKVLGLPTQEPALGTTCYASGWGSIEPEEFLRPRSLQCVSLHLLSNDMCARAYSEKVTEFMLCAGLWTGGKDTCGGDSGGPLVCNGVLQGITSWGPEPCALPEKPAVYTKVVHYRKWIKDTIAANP

Consider `CCC[C@H](NC(=O)[C@H](CCC(N)=O)NC(=O)[C@H](CC(N)=O)NC(=O)CCCCCNC(=O)CCCC[C@@H]1SC[C@@H]2NC(=O)N[C@@H]21)C(=O)NC(c1ccc(C(N)=O)cc1)P(=O)(Oc1ccccc1)Oc1ccccc1` (stereo partly shown) [compound 20], for which, at KLK2 [1], the “inhibition of KLK2” value was “no inhibition”. Broadly, the kinact/KI is the maximal inactivation rate divided by the concentration that gives half of it. As to `CC(C)(C)C(NC(=O)CCCCCNC(=O)CCCCC1SCC2NC(=O)NC21)C(=O)NC(CCN)C(=O)NC(Cc1ccc(O)cc1)C(=O)NC(c1ccc(NC(=N)N)cc1)P(=O)(Oc1ccccc1)Oc1ccccc1` (stereo not drawn) [compound 31, Tle-Dab-Tyr-Arg], the “selectivity (fold-change)” value on KLK2 [2] (KLK2 probe optimization series, KLK2 over KLK14) turned out to be 33 fold. Also, on KLK2 [2] (KLK2 probe optimization series), the kinact/KI turned out to be 3080 ± 87 M⁻¹ s⁻¹. Take `CCC(NC(=O)C(CCN)NC(=O)C(Cc1ccc2ccccc2c1)NC(=O)CCCCCNC(=O)CCCCC1SCC2NC(=O)NC21)C(=O)NC(c1ccc(NC(=N)N)cc1)P(=O)(Oc1ccccc1)Oc1ccccc1` (stereo not drawn) [compound 39, 2Nal-Dab-Abu-Arg]: at KLK2 [2] (KLK14 probe optimization series), the kinact/KI worked out at 204 ± 13 M⁻¹ s⁻¹.

The record behind these values is PMC9282638, “A Suite of Activity-Based Probes To Dissect the KLK Activome in Drug-Resistant Prostate Cancer” (Journal of the American Chemical Society, 2021).
